Experimental data published in US20060216333A1, “Methods related to the treatment of mucosal associated conditions” (priority 2003, published 2006).

Experiments:
Format in all cases: in vivo, rat
MCP-1 = assay: Serum and vaginal tissue MCP-1 after intravaginal dosing of rats (ELISA); conditions: for MCP-1 Tissue: vaginal tissue, per 200 mg
Description: (§1) In the examples below the serum and intravaginal cytokine data were obtained using the following general test method.
(§2) Rats were acclimated to collars (Lomir Biomedical, Malone, N.Y.) around the neck on two consecutive days prior to actual dosing. Rats were collared to prevent removal of the device and ingestion of the drug. Animals were then dosed intravaginally with a removable device or with […] of cream. Single dosed rats received one intravaginal dose with samples collected at various times following dosing. Blood was collected by cardiac puncture. Blood was allowed to clot briefly at room temperature and serum was separated from the clot via centrifugation. The serum was stored at −20° C. until it was analyzed for cytokine concentrations.
(§3) Following blood collection, the rats were euthanized and their vaginal tract, including the cervix, was then removed and the tissue was weighed, placed in a sealed 1.8 mL cryovial and flash frozen in liquid nitrogen. The frozen vaginal tissue sample was then suspended in 1.0 mL of RPMI medium (Celox, St. Paul, Minn.) containing 10% fetal bovine serum (Atlas, Fort Collins, Colo.), 2 mM L-glutamine, penicillin/streptomycin and 2-mercaptoethanol (RPMI complete) combined with a protease inhibitor cocktail set III (Calbiochem, San Diego, Calif.). The tissue was homogenized using a Tissue Tearor (Biospec Products, Bartlesville, Okla.) for approximately one minute. The tissue suspension was then centrifuged at 2000 rpm for 10 minutes under refrigeration to pellet the debris, and the supernatant collected and stored at −20° C. until analyzed for cytokine concentrations.
(§4) ELISA kits for rat TNF were purchased from BD PharMingen (San Diego, Calif.) and the rat MCP-1 ELISA kits were purchased from BioSource Intl. (Camarillo, Calif.).
(§5) Both kits were performed according to manufacturer's specifications. Results for both TNF and MCP-1 are expressed in pg/mL and are normalized per 200 mg of tissue. […] “Post dosing” means after treatment initiation. For example, if a device was inserted a time 0 hours and removed at 2 hours and cytokines were assayed at 4 hours, then the cytokines were assayed at 4 hours post dosing.

TNF = assay: Serum and vaginal tissue TNF after intravaginal dosing of rats (ELISA); conditions: for TNF Tissue: vaginal tissue, per 200 mg
Description: as §1, §2, §3, §4, §5

rats = assay: Histologic examination of uterus, cervix, vagina, vulva and perineal skin, Example 11; conditions: 1% device removed after 2 hours
Description: Cotton devices were prepared as described in Example 1. The devices were saturated with either a solution containing 1% by weight of IRM 2 in 50/50 w/w isostearic acid/isopropyl myristate or with 50/50 w/w isostearic acid/isopropyl myristate (vehicle). Three groups of rats were dosed intravaginally 2 times a week for 3 weeks (Tuesday, Friday, Monday, Thursday, Monday, Thursday) with 1% IRM 2 device, vehicle device or with 1% IRM 2 cream. The devices were removed after 2 hours. The cream was left in place. Cytokines were assayed 4 hours post dosing of the final dose. Three more groups of rats were dosed intravaginally with 1% IRM 2 device, vehicle device or with 1% ERM 2 cream. The devices were removed after 2 hours. The cream was left in place. Cytokines were assayed 4 hours post dosing. […] The results are shown in the table below where each value is the mean value for 3 rats.
Groups of 3 rats were treated as described in Example 8 and necropsied 22 hours after the devices were removed. Uterus, cervix, vagina, vulva and perineal skin were collected, fixed and processed routinely for histologic examination.

[1] = 4 hours post dosing, 1% in 50/50 ISA/IPM, cotton pellet device removed after 2 hours, Example 6
[2] = 4 hours post dosing, device 1.0% in 50/50 ISA/IPM, removed after 15 min, Example 4
[3] = 4 hours post dosing, device 1.0% in 50/50 ISA/IPM, removed after 30 min, Example 4
[4] = 4 hours post dosing, device 1.0% in 50/50 ISA/IPM, removed after 60 min, Example 4
[5] = 4 hours post dosing, device 1.0% in 50/50 ISA/IPM, removed after 120 min, Example 4
[6] = 4 hours post dosing, single dose, 1% in 50/50 ISA/IPM cotton device removed after 2 hours, Example 8
[7] = 4 hours post final dose, multiple dose, 2 times a week for 3 weeks, 1% in 50/50 ISA/IPM cotton device removed after 2 hours, Example 8
[8] = Multiple dose (2 times a week for 3 weeks)
[9] = 2 hr post dose, 5% in 50/50 ISA/IPM, cotton pellet device removed after 2 hours, Example 7
[10] = 4 hr post dose, 5% in 50/50 ISA/IPM, cotton pellet device removed after 2 hours, Example 7
[11] = 6 hr post dose, 5% in 50/50 ISA/IPM, cotton pellet device removed after 2 hours, Example 7

Compound: CCCCc1nc2c(N)nc3ccccc3c2n1CCS(=O)(=O)C(C)C [IRM 6, 2-butyl-1-{2-[(1-methylethyl)sulfonyl]ethyl}-1H-imidazo[4,5-c]quinolin-4-amine]
- MCP-1 Serum (MCP-1; [1]): 114 pg/mL
- MCP-1 Tissue (MCP-1; [1]): 1840 pg/mL
- TNF Serum (TNF; [1]): 1 pg/mL
- TNF Tissue (TNF; [1]): 491 pg/mL

Compound: Cc1nc2c(N)nc3ccccc3c2n1CC(C)(C)O [IRM 2, 4-amino-α,α,2-trimethyl-1H-imidazo[4,5-c]quinoline-1-ethanol]
- MCP-1 Serum (MCP-1; [1]): 114 pg/mL
- MCP-1 Serum (MCP-1; [2]): 68 pg/mL
- MCP-1 Serum (MCP-1; [3]): 83 pg/mL
- MCP-1 Serum (MCP-1; [4]): 118 pg/mL
- MCP-1 Serum (MCP-1; [5]): 92 pg/mL
- MCP-1 Serum (MCP-1; [6]): 59 pg/mL
- MCP-1 Serum (MCP-1; [7]): 87 pg/mL
- MCP-1 Tissue (MCP-1; [1]): 1016 pg/mL
- MCP-1 Tissue (MCP-1; [2]): 433 pg/mL
- MCP-1 Tissue (MCP-1; [3]): 454 pg/mL
- MCP-1 Tissue (MCP-1; [4]): 889 pg/mL
- MCP-1 Tissue (MCP-1; [5]): 2462 pg/mL
- MCP-1 Tissue (MCP-1; [6]): 1390 pg/mL
- MCP-1 Tissue (MCP-1; [7]): 2353 pg/mL
- TNF Serum (TNF; [1]): 4 pg/mL
- TNF Serum (TNF; [2]): 0 pg/mL
- TNF Serum (TNF; [3]): 0 pg/mL
- TNF Serum (TNF; [4]): 0 pg/mL
- TNF Serum (TNF; [5]): 0 pg/mL
- TNF Serum (TNF; [6]): 0 pg/mL
- TNF Serum (TNF; [7]): 0 pg/mL
- TNF Tissue (TNF; [1]): 384 pg/mL
- TNF Tissue (TNF; [2]): 493 pg/mL
- TNF Tissue (TNF; [3]): 390 pg/mL
- TNF Tissue (TNF; [4]): 537 pg/mL
- TNF Tissue (TNF; [5]): 716 pg/mL
- TNF Tissue (TNF; [6]): 888 pg/mL
- TNF Tissue (TNF; [7]): 1075 pg/mL
- Lesion incidence: Cervix, Cavitation (epithelium) (rats; [8]): 0/3
- Lesion incidence: Cervix, Inflammation (rats; [8]): 1/3
- Lesion incidence: Perineal skin, Exudate on surface, epidermis (rats; [8]): 0/3
- Lesion incidence: Perineal skin, Inflammation, superficial dermis (rats; [8]): 1/3
- Lesion incidence: Perineal skin, Spongiosis, epidermis (rats; [8]): 1/3
- Lesion incidence: Perineal skin, Subcorneal pustules, epidermis (rats; [8]): 1/3
- Lesion incidence: Vagina, Edema, lamina propria (rats; [8]): 0/3
- Lesion incidence: Vagina, Inflammation, lamina propria (rats; [8]): 3/3
- Lesion incidence: Vulva, Edema, lamina propria (rats; [8]): 1/3
- Lesion incidence: Vulva, Erosion (rats; [8]): 0/3
- Lesion incidence: Vulva, Inflammation, lamina propria (rats; [8]): 3/3
- Lesion incidence: Vulva, Intraepithelial pustules (rats; [8]): 0/3
- Lesion incidence: Vulva, Necrosis, epithelium (rats; [8]): 1/3
- Lesion incidence: Vulva, Spongiosis, epithelium (rats; [8]): 1/3
- Lesion incidence: Vulva, Ulceration (rats; [8]): 0/3
- Lesion incidence: Cervix, Cavitation (epithelium) (rats; Single dose): 0/3
- Lesion incidence: Cervix, Inflammation (rats; Single dose): 0/3
- Lesion incidence: Perineal skin, Exudate on surface, epidermis (rats; Single dose): 0/3
- Lesion incidence: Perineal skin, Inflammation, superficial dermis (rats; Single dose): 1/3
- Lesion incidence: Perineal skin, Spongiosis, epidermis (rats; Single dose): 0/3
- Lesion incidence: Perineal skin, Subcorneal pustules, epidermis (rats; Single dose): 0/3
- Lesion incidence: Vagina, Edema, lamina propria (rats; Single dose): 0/3
- Lesion incidence: Vagina, Inflammation, lamina propria (rats; Single dose): 3/3
- Lesion incidence: Vulva, Edema, lamina propria (rats; Single dose): 0/3
- Lesion incidence: Vulva, Erosion (rats; Single dose): 0/3
- Lesion incidence: Vulva, Inflammation, lamina propria (rats; Single dose): 3/3
- Lesion incidence: Vulva, Intraepithelial pustules (rats; Single dose): 1/3
- Lesion incidence: Vulva, Necrosis, epithelium (rats; Single dose): 1/3
- Lesion incidence: Vulva, Spongiosis, epithelium (rats; Single dose): 0/3
- Lesion incidence: Vulva, Ulceration (rats; Single dose): 0/3

Compound: Nc1nc2ccccc2c2c1ncn2CCOCc1ccncc1 [IRM 9, 1-[2-(pyridin-4-ylmethoxy)ethyl]-1H-imidazo[4,5-c]quinolin-4-amine]
- MCP-1 Serum (MCP-1; [9]): 85 pg/mL
- MCP-1 Serum (MCP-1; [10]): 131 pg/mL
- MCP-1 Serum (MCP-1; [11]): 180 pg/mL
- MCP-1 Tissue (MCP-1; [9]): 328 pg/mL
- MCP-1 Tissue (MCP-1; [10]): 1556 pg/mL
- MCP-1 Tissue (MCP-1; [11]): 850 pg/mL
- TNF Serum (TNF; [9]): 30 pg/mL
- TNF Serum (TNF; [10]): 4 pg/mL
- TNF Serum (TNF; [11]): 8 pg/mL
- TNF Tissue (TNF; [9]): 597 pg/mL
- TNF Tissue (TNF; [10]): 697 pg/mL
- TNF Tissue (TNF; [11]): 248 pg/mL

Compound: CCCCc1nc2c(N)nc3ccccc3c2n1CCCS(C)(=O)=O [IRM 10, 2-butyl-1-[3-(methylsulfonyl)propyl]-1H-imidazo[4,5-c]quinoline-4-amine]
- MCP-1 Serum (MCP-1; [9]): 111 pg/mL
- MCP-1 Serum (MCP-1; [10]): 160 pg/mL
- MCP-1 Serum (MCP-1; [11]): 155 pg/mL
- MCP-1 Tissue (MCP-1; [9]): 739 pg/mL
- MCP-1 Tissue (MCP-1; [10]): 1440 pg/mL
- MCP-1 Tissue (MCP-1; [11]): 975 pg/mL
- TNF Serum (TNF; [9]): 16 pg/mL
- TNF Serum (TNF; [10]): 25 pg/mL
- TNF Serum (TNF; [11]): 10 pg/mL
- TNF Tissue (TNF; [9]): 1110 pg/mL
- TNF Tissue (TNF; [10]): 887 pg/mL
- TNF Tissue (TNF; [11]): 519 pg/mL
